Experiments:
Assay type in all cases: functional, cell-based, Oocyte
[1] = target: Glutamate receptor ionotropic, NMDA 2C (Homo sapiens, UniProt Q05586+Q14957); experiment: Antagonistic activity against NR1A/2C receptor in frog oocytes
[2] = target: Glutamate receptor ionotropic, NMDA 2A (Homo sapiens, UniProt Q05586+Q12879); experiment: Antagonistic activity against NR1A/2A receptors in frog oocytes
[3] = target: Glutamate receptor ionotropic, NMDA 2B (Homo sapiens, UniProt Q05586+Q13224); experiment: Antagonistic activity against NR1A/2B receptor in frog oocytes
Chain of Glutamate receptor ionotropic, NMDA 2B (Q13224 whole entry, one chain of several): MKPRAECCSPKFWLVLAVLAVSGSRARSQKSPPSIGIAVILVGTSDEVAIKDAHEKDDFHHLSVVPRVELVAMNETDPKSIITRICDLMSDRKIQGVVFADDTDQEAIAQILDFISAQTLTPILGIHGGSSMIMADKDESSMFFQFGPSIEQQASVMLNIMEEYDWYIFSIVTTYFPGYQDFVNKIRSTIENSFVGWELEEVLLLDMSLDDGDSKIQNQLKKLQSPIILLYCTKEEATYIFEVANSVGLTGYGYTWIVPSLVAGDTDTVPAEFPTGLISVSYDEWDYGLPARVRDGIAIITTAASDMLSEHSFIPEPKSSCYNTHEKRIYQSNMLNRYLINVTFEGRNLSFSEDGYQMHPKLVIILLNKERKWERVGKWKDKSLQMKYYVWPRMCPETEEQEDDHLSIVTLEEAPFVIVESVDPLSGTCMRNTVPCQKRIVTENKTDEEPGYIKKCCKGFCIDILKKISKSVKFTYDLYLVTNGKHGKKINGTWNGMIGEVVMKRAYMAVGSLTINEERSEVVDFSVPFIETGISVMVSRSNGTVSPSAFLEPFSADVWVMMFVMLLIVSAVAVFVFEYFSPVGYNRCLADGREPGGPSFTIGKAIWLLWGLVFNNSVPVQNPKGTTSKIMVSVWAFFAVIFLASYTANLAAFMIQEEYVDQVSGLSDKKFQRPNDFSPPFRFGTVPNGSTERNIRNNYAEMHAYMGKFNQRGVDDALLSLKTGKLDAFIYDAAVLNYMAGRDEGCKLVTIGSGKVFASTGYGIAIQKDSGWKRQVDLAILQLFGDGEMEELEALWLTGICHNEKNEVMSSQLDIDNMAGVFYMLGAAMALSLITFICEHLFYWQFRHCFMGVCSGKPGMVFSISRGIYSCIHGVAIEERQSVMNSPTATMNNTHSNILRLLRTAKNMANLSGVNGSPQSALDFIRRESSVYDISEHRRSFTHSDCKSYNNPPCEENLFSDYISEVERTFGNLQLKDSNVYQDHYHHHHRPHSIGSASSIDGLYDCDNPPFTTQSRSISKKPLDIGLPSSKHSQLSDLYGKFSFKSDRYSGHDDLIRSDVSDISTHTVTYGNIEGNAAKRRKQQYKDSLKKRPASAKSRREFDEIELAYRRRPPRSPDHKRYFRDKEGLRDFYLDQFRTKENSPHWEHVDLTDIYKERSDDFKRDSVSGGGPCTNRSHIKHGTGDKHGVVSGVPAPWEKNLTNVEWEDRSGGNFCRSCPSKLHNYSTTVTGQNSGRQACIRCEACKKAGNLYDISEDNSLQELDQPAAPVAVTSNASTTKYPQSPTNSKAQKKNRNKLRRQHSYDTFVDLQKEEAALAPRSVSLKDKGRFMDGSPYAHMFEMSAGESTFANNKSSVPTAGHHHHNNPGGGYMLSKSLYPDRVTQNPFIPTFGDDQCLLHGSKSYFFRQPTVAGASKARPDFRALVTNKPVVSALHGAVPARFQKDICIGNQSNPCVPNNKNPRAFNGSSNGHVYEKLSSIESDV

Chain of Glutamate receptor ionotropic, NMDA 2C (Q14957 whole entry, one chain of several): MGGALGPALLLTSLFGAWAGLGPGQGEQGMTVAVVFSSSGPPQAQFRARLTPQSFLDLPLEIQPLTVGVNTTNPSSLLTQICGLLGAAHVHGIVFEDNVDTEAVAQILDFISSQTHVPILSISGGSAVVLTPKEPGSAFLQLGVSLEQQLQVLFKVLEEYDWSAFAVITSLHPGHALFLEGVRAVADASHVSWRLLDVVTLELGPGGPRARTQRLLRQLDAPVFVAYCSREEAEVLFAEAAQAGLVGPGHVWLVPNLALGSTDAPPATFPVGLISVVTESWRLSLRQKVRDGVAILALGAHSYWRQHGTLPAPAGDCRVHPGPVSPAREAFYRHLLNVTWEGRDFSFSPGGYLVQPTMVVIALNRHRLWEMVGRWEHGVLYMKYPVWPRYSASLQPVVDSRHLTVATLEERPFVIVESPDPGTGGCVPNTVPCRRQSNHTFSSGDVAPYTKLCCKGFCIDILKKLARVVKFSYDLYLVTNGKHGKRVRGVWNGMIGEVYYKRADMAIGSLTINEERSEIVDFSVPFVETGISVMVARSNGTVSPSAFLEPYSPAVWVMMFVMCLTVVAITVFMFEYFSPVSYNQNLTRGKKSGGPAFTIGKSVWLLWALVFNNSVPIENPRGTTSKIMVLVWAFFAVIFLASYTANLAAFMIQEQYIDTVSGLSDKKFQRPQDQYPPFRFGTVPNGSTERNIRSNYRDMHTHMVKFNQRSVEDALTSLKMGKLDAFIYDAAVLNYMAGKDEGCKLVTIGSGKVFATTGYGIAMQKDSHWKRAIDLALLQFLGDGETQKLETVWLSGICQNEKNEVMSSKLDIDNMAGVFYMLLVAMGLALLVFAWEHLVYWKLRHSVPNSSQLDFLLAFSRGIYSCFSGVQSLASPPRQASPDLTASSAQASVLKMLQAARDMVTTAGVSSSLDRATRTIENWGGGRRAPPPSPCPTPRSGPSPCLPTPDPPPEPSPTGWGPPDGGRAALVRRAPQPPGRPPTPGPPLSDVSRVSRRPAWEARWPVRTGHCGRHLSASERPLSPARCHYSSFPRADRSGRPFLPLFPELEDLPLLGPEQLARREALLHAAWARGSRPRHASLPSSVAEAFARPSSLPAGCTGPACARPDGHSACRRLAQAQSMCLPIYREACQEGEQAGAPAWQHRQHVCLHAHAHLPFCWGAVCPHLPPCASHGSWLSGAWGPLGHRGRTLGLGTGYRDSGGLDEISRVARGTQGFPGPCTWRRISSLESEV
Chain of Glutamate receptor ionotropic, NMDA 2A (Q12879 whole entry, one chain of several): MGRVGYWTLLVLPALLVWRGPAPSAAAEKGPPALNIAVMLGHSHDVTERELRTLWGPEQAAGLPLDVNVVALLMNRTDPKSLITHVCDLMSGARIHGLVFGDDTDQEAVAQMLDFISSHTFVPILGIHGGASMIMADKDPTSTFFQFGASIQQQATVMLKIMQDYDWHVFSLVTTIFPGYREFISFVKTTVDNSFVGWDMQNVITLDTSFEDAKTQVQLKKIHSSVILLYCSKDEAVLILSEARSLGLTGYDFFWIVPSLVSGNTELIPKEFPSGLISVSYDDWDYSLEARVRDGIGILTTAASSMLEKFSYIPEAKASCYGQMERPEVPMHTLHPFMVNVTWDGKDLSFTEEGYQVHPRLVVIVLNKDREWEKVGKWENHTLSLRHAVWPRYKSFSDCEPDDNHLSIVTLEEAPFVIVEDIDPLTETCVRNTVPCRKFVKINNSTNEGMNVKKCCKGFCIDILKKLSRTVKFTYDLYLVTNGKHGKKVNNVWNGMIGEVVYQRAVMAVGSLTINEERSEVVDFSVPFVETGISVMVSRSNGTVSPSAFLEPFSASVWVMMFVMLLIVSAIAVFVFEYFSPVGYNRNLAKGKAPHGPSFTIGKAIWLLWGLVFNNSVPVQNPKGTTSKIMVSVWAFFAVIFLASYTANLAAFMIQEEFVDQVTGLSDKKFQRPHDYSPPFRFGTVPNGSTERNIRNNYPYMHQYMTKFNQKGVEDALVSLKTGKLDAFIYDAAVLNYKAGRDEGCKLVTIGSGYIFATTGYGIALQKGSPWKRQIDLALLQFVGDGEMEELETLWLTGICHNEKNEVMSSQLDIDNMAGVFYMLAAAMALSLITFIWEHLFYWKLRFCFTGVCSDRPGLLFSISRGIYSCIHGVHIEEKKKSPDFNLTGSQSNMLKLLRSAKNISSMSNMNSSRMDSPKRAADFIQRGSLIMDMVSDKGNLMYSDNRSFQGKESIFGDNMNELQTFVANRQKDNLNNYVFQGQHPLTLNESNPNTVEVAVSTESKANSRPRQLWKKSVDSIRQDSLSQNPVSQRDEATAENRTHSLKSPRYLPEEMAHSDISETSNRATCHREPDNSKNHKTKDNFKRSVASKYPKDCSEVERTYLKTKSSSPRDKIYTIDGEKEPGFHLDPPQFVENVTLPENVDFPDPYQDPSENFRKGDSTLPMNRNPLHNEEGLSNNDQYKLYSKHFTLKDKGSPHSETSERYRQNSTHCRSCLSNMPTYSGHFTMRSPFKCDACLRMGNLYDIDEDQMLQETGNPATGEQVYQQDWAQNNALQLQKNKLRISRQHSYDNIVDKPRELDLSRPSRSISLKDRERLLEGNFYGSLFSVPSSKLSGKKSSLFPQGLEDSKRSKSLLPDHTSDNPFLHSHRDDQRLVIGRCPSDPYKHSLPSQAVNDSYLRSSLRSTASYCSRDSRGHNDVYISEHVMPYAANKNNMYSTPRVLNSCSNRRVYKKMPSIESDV

Structure (SMILES) | IC50 [1] | IC50 [2] | IC50 [3]
Nc1nnc(SCCCN2CCC(Cc3ccccc3)CC2)s1 | > 100 µM | 73 µM | 0.56 µM
Nc1nnc(SCCN2CCC(Cc3ccccc3)CC2)[nH]1 | > 100 µM | > 100 µM | 0.035 µM
c1ccc(CC2CCN(CCSc3nc[nH]n3)CC2)cc1 | > 100 µM | > 100 µM | 0.13 µM
O=[N+]([O-])c1ccc2[nH]c(SCCN3CCC(Cc4ccccc4)CC3)nc2c1 | > 100 µM | > 100 µM | 7.4 µM
Oc1ccc(SCCN2CCC(Cc3ccccc3)CC2)cc1 | > 100 µM | 35 µM | 0.1 µM
Cc1nnc(SCCN2CCC(Cc3ccccc3)CC2)s1 | > 100 µM | > 100 µM | 4.8 µM
c1ccc(CC2CCN(CCCSc3ccccc3)CC2)cc1 | > 100 µM | – | 4.3 µM
O=[N+]([O-])c1ccc2nc(SCCCN3CCC(Cc4ccccc4)CC3)[nH]c2c1 | > 100 µM | 61 µM | 0.91 µM
Cc1n[nH]c(SCCCN2CCC(Cc3ccccc3)CC2)n1 | > 100 µM | > 100 µM | 1 µM
Cc1n[nH]c(SCCN2CCC(Cc3ccccc3)CC2)n1 | > 100 µM | > 100 µM | 0.15 µM
c1ccc(CC2CCN(CCCSc3nnc[nH]3)CC2)cc1 | > 100 µM | 51 µM | 0.63 µM
c1ccc(CC2CCN(CCSc3nc4ccccc4[nH]3)CC2)cc1 | > 100 µM | – | 0.38 µM
c1ccc(CC2CCN(CCSc3ncc[nH]3)CC2)cc1 | > 100 µM | > 100 µM | 0.07 µM
Oc1ccc(C#CCCN2CCC(Cc3ccccc3)CC2)cc1 | > 100 µM | > 100 µM | 0.1 µM
c1ccc(CC2CCN(CCSc3ccccc3)CC2)cc1 | > 100 µM | > 100 µM | 0.93 µM

Next, values leading:

IC50 [1] | IC50 [2] | IC50 [3] | Structure (SMILES)
> 100 µM | > 100 µM | 0.21 µM | Nc1nnc(SCCN2CCC(Cc3ccccc3)CC2)s1
51 µM | 64 µM | 1 µM | c1ccc(CC2CCN(CCCSc3nc4ccccc4[nH]3)CC2)cc1
> 100 µM | > 100 µM | 0.24 µM | c1ccc(CC2CCN(CCSc3nc4ncccc4[nH]3)CC2)cc1
> 100 µM | > 100 µM | 1.6 µM | c1ccc(CC2CCN(CCCSc3nc4ncccc4[nH]3)CC2)cc1
> 100 µM | > 100 µM | 6.4 µM | Cc1nnc(SCCCN2CCC(Cc3ccccc3)CC2)s1
> 100 µM | 77 µM | 0.63 µM | Nc1n[nH]c(SCCCN2CCC(Cc3ccccc3)CC2)n1
> 100 µM | 77 µM | 0.61 µM | c1ccc(CC2CCN(CCCSc3ncc[nH]3)CC2)cc1

Reference: ChEMBL document CHEMBL1133420, “Parallel synthesis of a series of subtype-selective NMDA receptor antagonists” (Bioorg Med Chem Lett, 2000)
